Experiments:
[1] = system: SU-DHL-8 (EZH2 WT); assay: In vitro 50% growth inhibition (GI50), MTT/CCK8, SU-DHL-8 cells; assay type: cell-based; details: Homo sapiens, SU-DHL-8, 144 h; Drug treatment for 6 days
[2] = system: Pfeiffer cells (EZH2 A677G); assay: Compound washout effect on in vitro growth of Pfeiffer cells (irreversible inhibition); assay type: cell-based, Human; details: for Pfeiffer cells growth rate (%) (10 days), Continuous: continuous treatment; for Pfeiffer cells growth rate (%) (10 days), Washout: washout after 12 h
Description: The test of the compound washout effect on the in vitro growth inhibition of human diffuse large cell B lymphoma lymphocyte Pfeiffer (ATCC) expressing EZH2 A677G mutant protein was performed as follows.
Log-phase Pfeiffer cells were centrifuged directly (1700 rpm, 3 min), and the supernatant was discarded and the cells were counted. Cells were prepared with the complete medium (2×10^4 cells per ml), inoculated to 96-well plates (Corning), 200 μl per well, and incubated overnight at 37° C., 5% CO2. […] The cells were further cultured for 12 h. The cells in half of the test wells were then collected by centrifugation (parallel to 2 wells), and washed three times with serum-free cell culture medium, and then resuspended in a same volume of complete cell culture medium (200 μl). It was further cultured together with the untreated cells for 10 days at 37° C., 5% CO2.

[3] = system: EZH2 A677G mutant positive-expressing tumor cell line Pfeiffer; assay: In vivo growth inhibition, Pfeiffer subcutaneous transplantation model; details: for Tumor volume: 200 mg/kg orally once a day
Text: Test Example 2 Determination of the in vivo growth inhibition activity of the present compounds on EZH2 A677G mutant positive-expressing tumor cell line Pfeiffer NOD/SCID mice were subcutaneously inoculated with human diffuse large cell B lymphoma lymphocyte Pfeiffer (ATCC) expressing EZH2 A677G mutant protein to establish a subcutaneous transplantation model of human B cell lymphoma.
Experimental animals: NOD/SCID mice, female, 9 weeks (weeks of age when tumor cell inoculation), average weight 20.3 g, 18 mice, were purchased from Shanghai Lingchang biotechnology co., Ltd. with animal certificate No.: 2002007656. The breeding environment was SPF grade.
Test samples: the present example compounds 34 (purity: 99.03%) and 35 (purity: 97.6%), solid powder, preserved at −20° C.
Pfeiffer cells were cultured in RPM1640 medium containing 10% of fetal bovine serum. Log-phase Pfeiffer cells were collected and resuspended with PBS to 1×10^8 cells per ml for subcutaneous inoculation in NOD/SCID mice.
All the mice were treated with Co60 irradiation at a dose of 200 rad the day before the inoculation, and 1×10^7 Pfeiffer cells were then subcutaneously inoculated at the right back, and the cells were resuspended in 1:1 PBS and Matrigel (0.1 ml/mouse). When the average tumor volume was 134 mm^3, the mice were randomly grouped according to tumor size. Tumor volume was calculated as: long diameter×short diameter^2/2. The day of tumor cells inoculation was defined as day 0. The test was divided into solvent control group and drug treatment group (compound 34 group and compound 35 group). 6 mice for each group were given orally once a day for a total of 4 weeks. Efficacy was assessed based on relative tumor growth inhibition value (TGI), and safety was assessed based on animal weight change and mortality.
Preparation of test samples: compounds 34 or 35 was weighed and mixed with ultrapure water, and methanesulfonic acid was added for clarification. The PH value was about 1.64 at this moment. 4M NaOH was then added to adjust the PH to 3.5 and bring to volume by ultrapure water, the final concentrations was 20 mg/ml. Determination standard: TGI (%): […].
T/C % refers to the relative value-added rate of tumor, that is, the percentage value of relative tumor volume or tumor weight for the treatment group and the control group at a certain point. T and C were the relative tumor volumes (RTV) of the treatment group and the control group at a specific point, respectively. The calculation formula is as follows: T/C%=TRTV/CRTV*100% TRTV: mean RTV of the treatment group; CRTV: mean RTV of solvent control group; RTV=Vt/V0, V0 was the tumor volume of the animal when grouping, Vt was the tumor volume of the animal after treatment. Statistical analysis: all test results were defined as mean tumor volume±SEM (mean standard error). Tumor volume data of 27 days after the start of treatment were selected for statistical analysis among different groups, and independent sample T test was used to compare whether there were significant differences in tumor volume between the treatment group and the control group. All data were analyzed using SPSS 18.0. P<0.05 was considered as significant difference.

[4] = system: Pfeiffer (EZH2 A677G); assay: In vitro 50% growth inhibition (GI50), MTT/CCK8, Pfeiffer cells; assay type: cell-based, Human; details: Homo sapiens, Pfeiffer, 240 h; Drug treatment for 10 days
[5] = system: Karpas-422 (EZH2 Y641N); assay: In vitro 50% growth inhibition (GI50), MTT/CCK8, Karpas-422 cells; assay type: cell-based; details: Homo sapiens, KARPAS-422, 144 h; Drug treatment for 6 days
[6] = 200 mg/kg, 27th day after the start of treatment
[7] = 200 mg/kg, 27 days after the start of treatment

## C=CC(=O)N1CCC(N(CC)c2cc(-c3ccc(CN4CCCCC4)cc3)cc(C(=O)NCc3c(C)cc(C)[nH]c3=O)c2C)CC1 [Example 34, N-(4,6-dimethyl-2-oxo-1,2-dihydro-pyridin-3-ylmethyl)-5-[(1-acryloyl-piperidin-4-yl)-ethyl-amino]-4-methyl-4′-(piperidin-1-ylmethyl)-[1,1′-biphenyl]-3-carboxamide]
[1]
  GI50: > 1 µM
[2]; Drug concentration 25 nM
  Pfeiffer cells growth rate (%) (10 days), Continuous: 0%
  Pfeiffer cells growth rate (%) (10 days), Washout: 0%
[2]; Drug concentration 50 nM
  Pfeiffer cells growth rate (%) (10 days), Continuous: 0%
  Pfeiffer cells growth rate (%) (10 days), Washout: 0%
[2]; Drug concentration 100 nM
  Pfeiffer cells growth rate (%) (10 days), Continuous: 0%
  Pfeiffer cells growth rate (%) (10 days), Washout: 0%
[2]; washout treatment of Pfeiffer cells
  reversibility of inhibitory effect on cell growth in vitro, in words: potential irreversible inhibitory effect
[3]; 200 mg/kg dose
  body weight during the treatment: maintained a stable body weight
  tolerability: well tolerated
[3]; Day 0 after the start of treatment
  Tumor volume: 135 ± 10 mm^3
[3]; Day 3 after the start of treatment
  Tumor volume: 298 ± 25 mm^3
[3]; Day 7 after the start of treatment
  Tumor volume: 439 ± 48 mm^3
[3]; Day 10 after the start of treatment
  Tumor volume: 441 ± 56 mm^3
[3]; Day 14 after the start of treatment
  Tumor volume: 381 ± 39 mm^3
[3]; Day 17 after the start of treatment
  Tumor volume: 472 ± 100 mm^3
[3]; Day 21 after the start of treatment
  Tumor volume: 477 ± 158 mm^3
[3]; Day 24 after the start of treatment
  Tumor volume: 570 ± 154 mm^3
[3]; Day 27 after the start of treatment, listed as Compound 34
  Tumor volume: 538 ± 199 mm^3
[3]; Day 27 after the start of treatment, listed as compound 34
  Tumor volume: 538 mm^3
[3]; [6]
  RTV (x ± S), relative tumor volume: 4.7 ± 2.3
  T/C (%), relative tumor volume: 32.9%
  TGI (%), relative tumor volume: 67.1%
[3]; [7]
  T/C (%), tumor weight: 23.4%
  TGI, tumor weight: 76.6%
  Tumor weight (mg) (x ± S): 264 ± 113 mg
[3]; 200 mg/kg, versus solvent control group
  anti-tumor effect, in words: significant anti-tumor effects
[4]
  GI50: 0.001 to 0.01 µM
[5]
  GI50: 0.01 to 0.1 µM

From US11214561B2, “Histone methyltransferase EZH2 inhibitor, preparation method and pharmaceutical use thereof” (ANCUREALL PHARMACEUTICAL (SHANGHAI) CO., LTD., priority 2017, dated 2022)
